Measurements as given in US20260232701A1, “[…] AN […] REUPTAKE INHIBITOR FOR USE IN THE TREATMENT OF TREAMENT- RESISTANT DEPRESSION” (Compass Pathfinder Limited, priority 2021, published 2026).
In brackets after ≈: the same amount, converted by molar mass.

Experiments:
[1] = system: participants with treatment-resistant depression (TRD); assay: Clinical Global Impression - Improvement scale (CGI-I), same study; assay type: in vivo, human; details: 25 mg + SSRI, N = 19
[2] = system: participants with treatment-resistant depression (TRD); assay: Montgomery-Asberg Depression Rating Scale (MADRS), Phase IIb open-label study of psilocybin adjunct to SSRI; assay type: in vivo, human; details: for MADRS total score, Mean (SD) / MADRS Remitters (MADRS total score ≤10) / MADRS Responders (≥50% decrease in MADRS total score from baseline) / MADRS total score, Change from baseline Mean (SD): 25 mg + SSRI, N = 19
Experimental: The effectiveness of 25 mg COMP360 as an adjunctive therapy in participants with TRD was explored.
The study was a Phase IIb, international multicentre, fixed-dose, open-label study. The study population included adult men and women, 18 years of age or older, with TRD. […] The duration of the current episode must be at least 3 months but not more than 2 years.
The psilocybin administration session (V3, day 1) will last approximately 6 h and will be supported by a trained therapist. The study drug will be administered simultaneously to up to six participants. Blood pressure will be monitored continuously during the session. The COMP360 administration session may be video recorded for training and adherence monitoring. After the acute effects of psilocybin pass, participants will be evaluated for safety and accompanied home. On day 2 (V4), the day following psilocybin administration, participants will be seen in person for a safety check, assessment of suicidality and clinical and self-report assessments, and to discuss their experience during the psilocybin administration session. All sessions between the therapist and the participant may be audio recorded for adherence monitoring and quality assurance.
The primary objective of this study is to evaluate the efficacy of 25 mg of psilocybin adjunct to serotonergic antidepressants in TRD participants, as assessed by the change in the Montgomery-Asberg Depression Rating Scale (MADRS) total score from baseline. Baseline is defined as the assessment score obtained on Day −1. The primary time point is week 3.
(§1) Additional objectives of this study are to assess the efficacy of psilocybin […] on the: • (a) proportion of subjects with response defined as a ≥50% decrease in MADRS total score from baseline to week 3. • (b) proportion of subjects with remission (defined as a MADRS total score ≤10) at week 3 post psilocybin administration. • (c) changes from baseline Clinical Global Impression-Severity scale (CGI-S) at week 3 post psilocybin administration.

[3] = system: participants with treatment-resistant depression (TRD); assay: Safety: treatment emergent adverse events (TEAE), same study; assay type: in vivo, human
Text: Another objective is to evaluate the safety and tolerability of psilocybin in subjects with TRD based on AEs, changes in vital signs, and suicidal ideation/behaviour (measured using the Columbia-Suicide Severity Rating Scale [C-SSRS]) score at all visits.
Throughout the course of the study, all adverse events (AEs) will be monitored and recorded and will include the AE's description, start and end date, seriousness, severity, action taken, and relationship to the treatment. If AEs occur, the first concern will be the safety of the study subjects.
An AE can therefore be any unfavorable and unintended sign (including an abnormal laboratory finding, for example), symptom, or disease temporally associated with the use of a medicinal product, whether considered related to the medicinal product.
AEs will be coded by Preferred Term (PT) using the Medical Dictionary for Regulatory Activities (MedDRA) classification. All reported AEs with onset or worsening after the administration of study medication will be included in the analysis. The incidence of AEs will be summarized by treatment group, and by severity and relationship to psilocybin. Serious AEs and AEs leading to withdrawal from the study will be tabulated.
A TEAE is defined as any AE that has an onset on or after the dose of psilocybin, or any pre-existing condition that has worsened on or after the dose of psilocybin.
The incidence of TEAEs and treatment-related AEs will also be summarized by maximum severity and most-related relationship to psilocybin by MedDRA primary system organ class and PT. The summary will include the total number and percentage of subjects reporting an event.

[4] = system: participants with treatment-resistant depression (TRD); assay: Clinical Global Impression - Severity scale (CGI-S), same study; assay type: in vivo, human; details: for CGI-S Responders: 25 mg + SSRI, N = 19
Experimental: as §1

[5] = Solubility in water
[6] = week 3, single 25 mg dose adjunct to SSRI
[7] = 25 mg adjunct to SSRI, 19 patients
[8] = on the day of dosing or the day after
[9] = severity mild, 25 mg + SSRI, N = 19
[10] = severity moderate, 25 mg + SSRI, N = 19

CN(C)CCc1c[nH]c2cccc(OP(=O)(O)O)c12 [COMP360, psilocybin]
CGI-I Responders ([1]; Day 2): 11 (57.9) n (%) | CGI-I Responders ([1]; Week 1): 12 (63.2) n (%) | CGI-I Responders ([1]; Week 2): 8 (42.1) n (%) | CGI-I Responders ([1]; Week 3): 7 (36.8) n (%) | MADRS total score, Mean (SD) ([2]; Baseline (before dosing)): 31.7 (5.77) | MADRS Remitters (MADRS total score ≤10) ([2]; Day 2): 10 (52.6) n (%) | MADRS Responders (≥50% decrease in MADRS total score from baseline) ([2]; Day 2): 12 (63.2) n (%) | MADRS total score, Change from baseline Mean (SD) ([2]; Day 2): −18.3 (11.85) | MADRS total score, Mean (SD) ([2]; Day 2): 13.4 (12.92) | MADRS Remitters (MADRS total score ≤10) ([2]; Week 1): 9 (47.4) n (%) | MADRS Responders (≥50% decrease in MADRS total score from baseline) ([2]; Week 1): 11 (57.9) n (%) | MADRS total score, Change from baseline Mean (SD) ([2]; Week 1): −17.1 (11.29) | MADRS total score, Mean (SD) ([2]; Week 1): 14.6 (11.88) | MADRS Remitters (MADRS total score ≤10) ([2]; Week 2): 8 (42.1) n (%) | MADRS Responders (≥50% decrease in MADRS total score from baseline) ([2]; Week 2): 11 (57.9) n (%) | MADRS total score, Change from baseline Mean (SD) ([2]; Week 2): −15.7 (12.02) | MADRS total score, Mean (SD) ([2]; Week 2): 16.0 (11.70) | MADRS Remitters (MADRS total score ≤10) ([2]; Week 3): 8 (42.1) n (%) | MADRS Responders (≥50% decrease in MADRS total score from baseline) ([2]; Week 3): 8 (42.1) n (%) | MADRS total score, Change from baseline Mean (SD) ([2]; Week 3): −14.9 (11.97) | MADRS total score, Mean (SD) ([2]; Week 3): 16.8 (11.62) | proportion of participants who were MADRS remitters ([2]; by week 3, single 25 mg dose adjunct to SSRI): ~ 42% | proportion of participants who were MADRS responders [2, 6]: ~ 42% | average reduction in MADRS total score from baseline ([2]; week 3, single 25 mg dose adjunct to SSRI, 19 patients): 14.9 | TEAEs classed as serious (TESAEs) [3, 7]: no TEAEs classed as serious | TEAEs related to suicidal ideation or behaviour or intentional self-injury [3, 7]: no TEAEs related to suicidal ideation or behaviour or intentional self-injury | tolerability [3, 7]: generally well tolerated | resolution of headache TEAE ([3]; all cases): all cases resolved in one or two days | most common TEAE headache, events [3, 8]: 6 events | most common TEAE headache, participants [3, 8]: 6 participants | TEAE Blood pressure increase [3, 9]: 1 (5.3) n (%) | TEAE Diarrhoea [3, 9]: 1 (5.3) n (%) | TEAE Dizziness [3, 9]: 1 (5.3) n (%) | TEAE Dry mouth [3, 9]: 1 (5.3) n (%) | TEAE Fall [3, 9]: 1 (5.3) n (%) | TEAE Headache [3, 9]: 5 (26.3) n (%) | TEAE Palpitations [3, 9]: 1 (5.3) n (%) | TEAE Skin abrasion [3, 9]: 1 (5.3) n (%) | TEAE Vertigo [3, 9]: 1 (5.3) n (%) | TEAE Depression [3, 10]: 1 (5.3) n (%) | TEAE Headache [3, 10]: 1 (5.3) n (%) | TEAE Hypertension ([3]; severity severe, 25 mg + SSRI, N = 19): 1 (5.3) n (%) | CGI-S Responders ([4]; Day 2): 8 (42.1) n (%) | CGI-S Responders ([4]; Week 1): 12 (63.2) n (%) | CGI-S Responders ([4]; Week 2): 11 (57.9) n (%) | CGI-S Responders ([4]; Week 3): 10 (52.6) n (%) | average CGI-S score ([4]; baseline ("moderately ill")): 4 | average CGI-S score ([4]; week 3 ("mildly ill"), single 25 mg dose adjunct to SSRI): 3 | proportion of participants who were CGI-S responders [4, 6]: 52.6% | solubility [5]: ~15 mg/mL (≈ 52.8 mM)
